{"source": "patent US8835377B2", "about": "“Oral delivery of peptide pharmaceutical compositions” (UGP Therapeutics, Inc., priority 2004, dated 2014)", "assay": "Pharmacokinetics after duodenal injection of unformulated or formulated Dmt-DALDA in anesthetized rats (plasma, HPLC-UV)", "assay_type": "in vivo", "conditions": "for Tmax / Cmax / AUC: Unformulated; for Cmax / AUC: rat; for AUC: trapezoidal rule; for Dmt-DALDA plasma concentration: unformulated", "method": "In the experiments represented in the subject Figure, six anesthetized rats (which were color-coded as: red, white, blue, orange, green and yellow) were given 0.7 mL Dmt-DALDA (1.6 mg/mL) with a syringe through a 27 gauge needle into the duodenum. This injection procedure was followed due to the technical difficulty inherent in preparing capsules which can be swallowed by small animals the size of a rat. The intraduodanal injection, therefore, mimics the release of the components of an enteric-coated capsule formulation which would pass through the esophagus and stomach and release its contents in the duodenum. Three of the rats (red, white and blue) were given Unformulated Dmt-DALDA in which there were no additional components (i.e., other than the Dmt-DALDA), while the other three rats (orange, green and yellow) were given Formulated Dmt-DALDA which included, in addition to the Dmt-DALDA, 0.5M citric acid and lauroyl carnitine (10 mg/ml). Samples of blood were taken from the carotid artery through an indwelling catheter before and 5, 15, 30, 60 and 120 minutes after the administration of the respective formulations (i.e., Formulated and Unformulated). The blood samples were centrifuged and the resulting plasma supernatants were stored frozen at −20° C. […] Peptide was detected with an ultraviolet (UV) detector set at a wavelength of 210 nm. […] Table I, moreover, provides the standard deviations for the data obtained regarding each of the test rats, which standard deviations are also indicated in FIG. 1.\nTable II (below) summarizes the pharmacokinetic parameters in rats of orally administered unformulated and formulated Dmt-DALDA as those terms are defined above. Cmax refers to the maximum concentration of peptide detected in the rat plasma. The area under the curve (AUC) is a measure of the extent of peptide absorption and is calculated by the trapezoidal rule from a plot of peptide concentration as a function of time. Tmax indicates when the maximum concentration of the Dmt-DALDA in the blood serum was obtained.", "note": "Where two headings read alike, the source gives them in different places."}
{"smiles": "Cc1cc(O)cc(C)c1C[C@H](N)C(=O)N[C@H](CCCNC(=N)N)C(=O)N[C@@H](Cc1ccccc1)C(=O)N[C@@H](CCCCN)C(N)=O", "note": "[unformulated]", "values": [{"measurement": "Tmax", "setting": "Avg (n = 3)", "result": 5.00, "unit": "min"}, {"measurement": "Tmax", "setting": "in vivo, 1.12 mg, Red rat, read-out: Tmax (converted)", "result": 5, "unit": "min"}, {"measurement": "Cmax", "setting": "in vivo, 1.12 mg, Avg (n = 3)", "result": 510, "unit": "ng/mL"}, {"measurement": "AUC", "setting": "in vivo, 1.12 mg, Avg (n = 3)", "result": 64, "unit": "ng·h/mL"}, {"measurement": "Cmax", "setting": "in vivo, 1.12 mg, Red rat", "result": 1540, "unit": "ng/mL"}, {"measurement": "AUC", "setting": "in vivo, 1.12 mg, Red rat", "result": 192, "unit": "ng·h/mL"}, {"measurement": "Dmt-DALDA detected in plasma", "setting": "rats given unformulated Dmt-DALDA", "result": "virtually undetectable"}, {"measurement": "Dmt-DALDA plasma concentration", "setting": "avg of rats, 0 min", "result": 0.00, "unit": "µg/mL"}, {"measurement": "Dmt-DALDA plasma concentration", "setting": "avg of rats, 15 min", "result": 0.00, "unit": "µg/mL"}, {"measurement": "Dmt-DALDA plasma concentration", "setting": "avg of rats, 30 min", "result": 0.00, "unit": "µg/mL"}, {"measurement": "Dmt-DALDA plasma concentration", "setting": "avg of rats, 60 min", "result": 0.00, "unit": "µg/mL"}, {"measurement": "Dmt-DALDA plasma concentration", "setting": "avg of rats, 120 min", "result": 0.00, "unit": "µg/mL"}, {"measurement": "Dmt-DALDA plasma concentration", "setting": "blue rat, 0 min", "result": 0.00, "unit": "µg/mL"}, {"measurement": "Dmt-DALDA plasma concentration", "setting": "blue rat, 5 min", "result": 0.00, "unit": "µg/mL"}, {"measurement": "Dmt-DALDA plasma concentration", "setting": "blue rat, 15 min", "result": 0.00, "unit": "µg/mL"}, {"measurement": "Dmt-DALDA plasma concentration", "setting": "blue rat, 30 min", "result": 0.00, "unit": "µg/mL"}, {"measurement": "Dmt-DALDA plasma concentration", "setting": "blue rat, 60 min", "result": 0.00, "unit": "µg/mL"}, {"measurement": "Dmt-DALDA plasma concentration", "setting": "blue rat, 120 min", "result": 0.00, "unit": "µg/mL"}, {"measurement": "Dmt-DALDA plasma concentration", "setting": "red rat, 0 min", "result": 0.00, "unit": "µg/mL"}, {"measurement": "Dmt-DALDA plasma concentration", "setting": "red rat, 15 min", "result": 0.00, "unit": "µg/mL"}, {"measurement": "Dmt-DALDA plasma concentration", "setting": "red rat, 30 min", "result": 0.00, "unit": "µg/mL"}, {"measurement": "Dmt-DALDA plasma concentration", "setting": "red rat, 60 min", "result": 0.00, "unit": "µg/mL"}, {"measurement": "Dmt-DALDA plasma concentration", "setting": "red rat, 120 min", "result": 0.00, "unit": "µg/mL"}, {"measurement": "Dmt-DALDA plasma concentration", "setting": "white rat, 0 min", "result": 0.00, "unit": "µg/mL"}, {"measurement": "Dmt-DALDA plasma concentration", "setting": "white rat, 5 min", "result": 0.00, "unit": "µg/mL"}, {"measurement": "Dmt-DALDA plasma concentration", "setting": "white rat, 15 min", "result": 0.00, "unit": "µg/mL"}, {"measurement": "Dmt-DALDA plasma concentration", "setting": "white rat, 30 min", "result": 0.00, "unit": "µg/mL"}, {"measurement": "Dmt-DALDA plasma concentration", "setting": "white rat, 60 min", "result": 0.00, "unit": "µg/mL"}, {"measurement": "Dmt-DALDA plasma concentration", "setting": "white rat, 120 min", "result": 0.00, "unit": "µg/mL"}]}
